According to US10455839B2, “Pre-plant biocide uses of aqueous cyanamides” (METBRO DI[…], priority 2015, dated 2019):

Columns and labels:
[1] = system: cotton or occasional nutgrass; assay: Phytotoxicity after drench in cotton field; format: in vivo; conditions: 3,000 or 4,500 ppm; never irrigated field
[2] = system: endo and ecotparasitic nematodes; assay: Soil column drench, nematode control (Example 1, FIG. 2); format: in vivo; conditions: 750 ppm; soil screened free of roots; 15, 30 and 60 days after treatment
Procedure: In situ soil borne pest and disease populations were determined from known commercial locations. These infested soils were commonly of sandy loam or fine sandy loam texture that were screened free of all but the smallest of roots as they were placed into buckets. Buckets were then transported to a single location of deep loamy sand soil where 30″ long by 3″ diameter PVC open-ended pipes had been inserted to a depth of 22″ using a 3″ can auger (FIG. 1). Each soil column was then filled with infested soil to a depth of 22″ using a shovel handle to compress soil density during the soil transfer process.
The surface 8″ of each column remained vacant in order to eventually apply one liter of biocide solution onto each soil column and then determine the amount of time required to fully infiltrate the liter of water. Because infiltration rates varied from 3 hr to 4 days across each different biocide with or without adjuvant each column was used only once. Columns were cleaned and re-inserted to a different nearby location for subsequent tests. As testing proceeded dosage response curves were developed to reveal dosages needed to reach threshold levels for pest impact followed by quantification of the dosage needed to achieve as much as 100% pest kill where possible. […]

[3] = system: Young almond trees on NEMAGUARD rootstock; assay: Almond replant site soil, potted tree growth (FIGS. 22-23); format: in vivo
Text: Field Station evaluation involved sandy loam soil at an almond replant site drenched uniformly with 1,000 ppm. Surface soil was collected 60 days later and potted from three treatments, water only, 250 ppm Telone EC and 1000 ppm HyCyn. Young almond trees on NEMAGUARD rootstock were planted to each pot and trees maintained for six months.

[4] = system: F. oxysporum race-4; assay: Field Station drench of sandy loam soil to be planted to cotton, fungal counts (FIGS. 20-21); format: in vivo, Fusarium oxysporum; conditions: 3,000 or 4,500 ppm drenched to 40 cm; sandy loam at 10° C.; counted 28 and 70 DAT
Procedure: Field Station evaluation in sandy loam soil at 10° C. to be planted to cotton soil was drenched with 3,000 or 4,500 ppm HyCyn to 40 cm depth. F. oxysporum race-4 were identified and counted at 28 DAT (FIG. 20) and 70 DAT (FIG. 21).

[5] = system: one-year-old almonds trees; assay: Root system soak of one-year-old almond trees (FIGS. 24-25); format: in vivo; conditions: 750 ppm, 24 hr, entire root systems soaked in a static setting
Text: Field Station evaluation where root systems of one-year-old almonds trees were placed in concentrations of HyCyn. Intact 1-yr-old trees were separated from their planting pots and placed into buckets containing open solutions of 400; 750; 1,000; 1,250; 1,500; or 3,000 ppm HyCyn for 6, 18 or 24 hr. […] The results are depicted in FIGS. 24 and 25.

[6] = system: Meloidogyne incognita race-3; assay: Field Station drench of sandy loam soil infested with root-knot nematode (FIGS. 18-19); format: in vivo
Procedure: Field Station evaluations included sandy loam soil at 10° C. vs 15° C. in adjacent sites. These sites were uniformly infested with Meloidogyne incognita race-3. The first site (10° C.) was drenched with 750 or 1,000 ppm to a depth of 40 cm and planted with carrots 70 DAT. Ten weeks later soil at the second site (15° C.) was drenched with 1,250 or 1,500 ppm and 30 DAT planted with sweet potato slips. Nematode samples were collected at 0-15 and 15-30 cm depths.

[7] = system: eight-year-old butternut trees, Juglans cathayensis; assay: Drench of eight-year-old butternut trees, tree kill (FIG. 26); format: in vivo
Text: Field Station evaluation of eight-year-old butternut trees, Juglans cathayensis, drenched with 2,000 ppm HyCyn within 400 or 800 L water. Two of four trees receiving 400 L solution were not completely killed but four of four trees receiving 800 L of the same solution were killed (FIG. 26).

[8] = system: P. vulnus; assay: Five-day sieve-mist extraction of nematodes from roots and soil after tree drench (FIG. 27); format: in vivo, Pratylenchus vulnus; conditions: 2,000 ppm drench

## N#CN [HyCyn, hydrogen cyanamide]
[1]
  burning of leaves of cotton or occasional nutgrass: did not cease even five months after treatment
[2]
  effect on nematode populations in test soil: elimination of endo and ecotparasitic nematodes
[3]; 1,000 ppm
  root rejection component of the replant problem: provides a remedy for the root rejection component of the replant problem
[3]; 1,000 ppm, compared to soil treated with 250 ppm Telone ec or untreated soil
  tree growth after six months (FIG. 23): improved growth
[3]; soil drenched with 1,000 ppm, collected 60 days later and potted, versus water only
  tree growth within 2 months after planting: improved growth
[3]; soil drenched with 1,000 ppm, compared to the untreated
  plant biomass at the 6th month: plant biomass differences were greater
[4]
  rate needed to halt F. oxysporum: highest rate was necessary to halt F. oxysporum
[5]
  tree survival after root soak: no tree survived or re-initiated growth
[6]; 750 or 1,000 ppm drenched to 40 cm, sandy loam soil at 10° C., carrots
  nematode control: no nematode control
[6]; 1,250 or 1,500 ppm, sandy loam soil at 15° C., sweet potato
  nematode control: did provide nematode control
[7]; 2,000 ppm within 400 L water
  trees not completely killed: Two of four
[7]; 2,000 ppm within 800 L water
  trees killed: four of four
[8]; beneath the surface 90 cm of treated soil
  kill of soil dwelling nematodes: 99.9%
[8]; root samples, FIG. 27: 30 DAT
  kill of P. vulnus from root samples: kill of all P. vulnus
